Data from US20210260069A1, “IRE1a INHIBITOR IN COMBINATION WITH CANCER [sequence] AGENT FOR CANCER TREATMENT” (Fosun Orinove PharmaTech, Inc., priority 2018, published 2021).

Experiments:
MCF-7 cells = assay: XBP1s level induced in MCF-7 cells; type: cell-based, human
Description: (§1) This method applies to any mammalian cell line but was typically applied to human MM1s myeloma cells for EC50 and RPMI 8826 plasmacytoma cells for confirmation of selected compounds. Briefly, cells were grown in standard conditions and spread into 96 well tissue culture plates. Cells were treated with compounds with indicated concentration using serial dilutions. DTT (dithiothreitol) or compounds were added at the same time and cells were harvested after indicated hour's treatment. Cells treated with DTT alone were used as 100% XBP1s positive controls and cell left untreated were used as base line XBP1s level.
(§2) Splicing Assay: Total RNA was isolated from cells treated with compounds using Applied Biosystems RNAqueous kit. 1 μg of total RNA was reverse transcribed using Oligo dt (12-18) (Invitrogen). The cDNA was then amplified at 95° C. for 8 min and 30 sec, then 40 cycles at 95° C. for 15 sec and 63° C. for 1 min. Samples were run against a purified standard curve for both spliced and unspliced XBP1, and further normalized to internal house-keeping gene GAPDH.
(§3) The same methods were used as above for Lestaurtinib.

XBP1s = assay: Determination of XBP1s level induced by various compounds (RT-qPCR splicing assay), several cell lines; type: cell-based, human; conditions: for induction of XBP1s: in a time, cell or concentration dependent manner; for ER stress measured by XBP1s level (FIG. 6): Hep G2, MCF-7 and RPMI 8226 cells, 1, 2 or 4 hours
Description: as §1, §2

Hepatoma cells = assay: XBP1s level induced in Hepatoma (Hep G2) cells; type: cell-based, human
Description: as §1, §2

A549 cells = assay: XBP1s level induced in A549 cells; type: cell-based, human
Description: as §1, with “Briefly,” for “This method applies to any mammalian cell line but was typically applied to human MM1s myeloma cells for EC50 and RPMI 8826 plasmacytoma cells for confirmation of selected compounds. Briefly,”
as §2, §3

RPMI 8226 cells = assay: XBP1s level induced in RPMI 8226 cells; type: cell-based, human
Description: as §1, with “Briefly,” for “This method applies to any mammalian cell line but was typically applied to human MM1s myeloma cells for EC50 and RPMI 8826 plasmacytoma cells for confirmation of selected compounds. Briefly,”
as §2, §3

MM1s cells = assay: XBP1s level induced in MM1s cells; type: cell-based, human
Description: as §1, §2, §3

human liver HUH-7 cells = assay: Subcutaneous HUH-7 liver cancer xenograft model, survival (Example 23); type: in vivo, Female BALB/c nude mice
Description: Female BALB/c nude mice were subcutaneously inoculated with human liver HUH-7 cells (from JCRB) to establish a xenograft model of liver cancer. The scheduled administration cycle was 28 days. Animals were assigned into 4 groups (n=10/group): one vehicle group, two single treatment groups (Orin 1001 administered at 80 mg/kg/day q.d. for 28 days; Sorafenib administered following a dose regimen of 18.25 mg/kg/day q.d. for 5 days, then 25 mg/kg/day q.d. for 3 days, and then 45 mg/kg/day q.d. for 20 days, consecutively) and one combination treatment group (sorafenib administered following a dose regimen of 18.25 mg/kg/day q.d. for 5 days, then 25 mg/kg/day q.d. for 3 days, and then 45 mg/kg/day q.d. for 20 days, consecutively, whilst combined with Orin 1001 administered q.d. at a dose of 80 mg/kg/day for 28 days). All vehicle or administration treatments were given via oral gavage. Sorafenib was formulated with Kolliphor® EL/ethanol (2/1, v/v) and water. Orin 1001 was dissolved with cellulose microcrystalline and sucrose in purified water to form as suspension. The mice were euthanized if a tumor volume achieved over 2000 mm^3. Otherwise the experiment ended on the 6th day after the last administration.

Hep3B-Luc cells = assay: Orthotopic Hep3B-luc human liver xenograft model (Example 22); type: in vivo, female BALB/c nude mice
Description: The tumor was inoculated by injecting Hep3B-Luc cells (established by WuXi AppTec R&D center) mixed with BD Matrigel in 20 μl (PBS:Matrigel=1:1) into the left lobe of the liver. […] Sorafenib was formulated with Cremophor® EL/ethanol (1:1) and purified water to form a solution of 9 mg/ml. […] Tumor weight was measured at the termination of study. T/Cweight value (in percent) was calculated using the formula: T/Cweight%=Tweight/Cweight×100%, while Tweight and Cweight were the mean tumor weights of the treated and the vehicle control groups, respectively.

HT-29 cells = assay: XBP1s level induced in HT-29 cells; type: cell-based, human
Description: as §1, §2, §3

SMILES: C=CCNC1=C2C[C@@H](C)C[C@H](OC)[C@H](O)[C@@H](C)/C=C(\C)[C@H](OC(N)=O)[C@@H](OC)/C=C\C=C(/C)C(=O)NC(=CC1=O)C2=O [17-AAG]
- levels of XBP1s (MCF-7 cells; 1 hour of treatment): high levels
- levels of XBP1s (MCF-7 cells; 2 hours of treatment): modest levels
- levels of XBP1s (MCF-7 cells; 4 hours of treatment): low levels
- induction of XBP1s (XBP1s): able to induce XBP1s
- levels of XBP1s (Hepatoma cells; 1 hour of treatment): high levels
- levels of XBP1s (Hepatoma cells; 2 hours of treatment): modest levels
- levels of XBP1s (Hepatoma cells; 4 hours of treatment): low levels

SMILES: COc1cc2ncnc(Nc3ccc(F)c(Cl)c3)c2cc1OCCCN1CCOCC1 [Gefitinib]
- induction of XBP1s (XBP1s): able to induce XBP1s
- levels of XBP1s (A549 cells; 1 hour of treatment): increasing
- levels of XBP1s (A549 cells; 2 hours of treatment): highest levels

SMILES: Nc1ccn([C@@H]2O[C@H](CO)[C@@H](O)C2(F)F)c(=O)n1 [Gemcitabine]
- levels of XBP1s (RPMI 8226 cells; 1 hour of treatment): low levels
- levels of XBP1s (RPMI 8226 cells; 2 hours of treatment): low levels
- levels of XBP1s (RPMI 8226 cells; 4 hours of treatment): high levels
- induction of XBP1s (XBP1s): able to induce XBP1s

SMILES: Cc1cn(-c2cc(NC(=O)c3ccc(C)c(Nc4nccc(-c5cccnc5)n4)c3)cc(C(F)(F)F)c2)cn1 [Nilotinib]
- XBP1s induced (MM1s cells; 1 hour of treatment): modest amounts
- XBP1s induced (MM1s cells; 2 hours of treatment): greater than 50%
- XBP1s induced (MM1s cells; 4 hours of treatment): modest amounts
- induction of XBP1s (XBP1s): able to induce XBP1s

SMILES: CNC(=O)c1cc(Oc2ccc(NC(=O)Nc3ccc(Cl)c(C(F)(F)F)c3)cc2)ccn1 [Sorafenib]
- Median Survival Time (MST) (human liver HUH-7 cells; Orin 1001 80 mg/kg/day q.d. 28 days, sorafenib 18.25/25/45 mg/kg, Kaplan-Meier): 24 days
- ILS (%) (increase of life span) (human liver HUH-7 cells; versus vehicle group (group 1)): 20%
- induction of XBP1s (XBP1s): able to induce XBP1s
- levels of XBP1s (A549 cells; 1 hour of treatment): highest levels
- levels of XBP1s (A549 cells; 2 hours of treatment): highest levels
- levels of XBP1s (A549 cells; 4 hours of treatment): modest levels
- T/Cweight (%) (Hep3B-Luc cells; mean tumor weight treated / vehicle control, day 28): 19%
- Tumor Weight (g) at day 28 (Hep3B-Luc cells; oral gavage 28 consecutive days, Orin 1001 80 mg/kg/day, sorafenib 45 mg/kg/day): 0.91 ± 0.29 g

SMILES: CO[C@H]1C[C@@H]2CC[C@@H](C)[C@@](O)(O2)C(=O)C(=O)N2CCCC[C@H]2C(=O)O[C@H]([C@H](C)C[C@@H]2CC[C@@H](OC(=O)C(C)(CO)CO)[C@H](OC)C2)CC(=O)[C@H](C)/C=C(\C)[C@@H](O)[C@@H](OC)C(=O)[C@H](C)C[C@H](C)/C=C/C=C/C=C/1C [Torisel®, Temsirolimus]
- ER stress measured by XBP1s level (FIG. 6) (XBP1s): enhanced
- induction of XBP1s (XBP1s): able to induce XBP1s
- levels of XBP1s (A549 cells; 1 hour of treatment): high levels
- levels of XBP1s (A549 cells; 2 hours of treatment): modest levels
- levels of XBP1s (A549 cells; 4 hours of treatment): high levels

SMILES: Clc1ccc(Nc2nnc(Cc3ccncc3)c3ccccc23)cc1 [Vatalinib]
- ER stress measured by XBP1s level (FIG. 6) (XBP1s): enhanced
- induction of XBP1s (XBP1s): able to induce XBP1s

SMILES: O=C(CCCCCCC(=O)Nc1ccccc1)NO [Vorinostat]
- induction of XBP1s (XBP1s): able to induce XBP1s
- levels of XBP1s (HT-29 cells; 1 hour of treatment): high levels
- levels of XBP1s (HT-29 cells; 2 hours of treatment): little
- levels of XBP1s (HT-29 cells; 4 hours of treatment): little
